Reference: ChEMBL document CHEMBL1201862, “PubChem BioAssay data set” (2004)
Activity calls are given as the source filed them.

What was measured:
Nonstructural protein 1 = Nonstructural protein 1 (Influenza A virus, UniProt Q194T2); assay type: functional, Influenza A virus (A/California/07/2009(H1N1))
[1] = biological target: Photoreceptor-specific nuclear receptor (Homo sapiens, UniProt Q9Y5X4); assay type: functional, cell-based;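 also: CHO-S cells with Gal4-NCOR and VP16-NR2E3 two-hybrid luciferase reporter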
[2] = biological target: T1, Rac GTPase-activating protein 1 (Homo sapiens, UniProt Q9H0H5); test: blockers of MgcRacGAP-driven Rac1 GTP hydrolysis – biochemical, ADP Hunter fluorescence, primary and confirmatory, confirmation (AID 624330); assay type: functional
T1 sequence (Q9H0H5 whole entry): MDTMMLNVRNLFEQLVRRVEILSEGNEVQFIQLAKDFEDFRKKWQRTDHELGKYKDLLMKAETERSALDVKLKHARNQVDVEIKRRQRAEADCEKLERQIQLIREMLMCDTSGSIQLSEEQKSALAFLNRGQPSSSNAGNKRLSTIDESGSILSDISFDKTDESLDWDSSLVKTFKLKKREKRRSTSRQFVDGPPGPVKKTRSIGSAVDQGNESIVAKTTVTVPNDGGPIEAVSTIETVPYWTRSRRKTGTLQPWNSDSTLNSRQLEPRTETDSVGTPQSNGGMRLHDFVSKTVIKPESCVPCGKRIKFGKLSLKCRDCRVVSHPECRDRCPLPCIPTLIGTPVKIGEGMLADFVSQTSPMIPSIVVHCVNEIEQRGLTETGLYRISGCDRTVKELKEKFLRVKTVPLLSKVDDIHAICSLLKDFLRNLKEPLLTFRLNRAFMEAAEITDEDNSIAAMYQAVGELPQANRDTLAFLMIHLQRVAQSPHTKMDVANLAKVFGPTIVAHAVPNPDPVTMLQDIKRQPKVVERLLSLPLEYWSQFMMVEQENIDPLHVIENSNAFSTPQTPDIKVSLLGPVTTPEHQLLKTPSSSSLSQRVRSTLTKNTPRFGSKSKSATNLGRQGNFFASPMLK

[3] = HGIII-sPLA2 enzyme inhibition potency – biochemical, QFRET, IC50, dose response (AID 743457);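 also: green fluorescence rise as the enzyme cleaves BODIPY PC-A2 in liposomes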
[4] = biological target: T2, DNA repair protein RAD52 homolog (Homo sapiens, UniProt P43351); assay type: functional, biochemical
T2 sequence (P43351 whole entry): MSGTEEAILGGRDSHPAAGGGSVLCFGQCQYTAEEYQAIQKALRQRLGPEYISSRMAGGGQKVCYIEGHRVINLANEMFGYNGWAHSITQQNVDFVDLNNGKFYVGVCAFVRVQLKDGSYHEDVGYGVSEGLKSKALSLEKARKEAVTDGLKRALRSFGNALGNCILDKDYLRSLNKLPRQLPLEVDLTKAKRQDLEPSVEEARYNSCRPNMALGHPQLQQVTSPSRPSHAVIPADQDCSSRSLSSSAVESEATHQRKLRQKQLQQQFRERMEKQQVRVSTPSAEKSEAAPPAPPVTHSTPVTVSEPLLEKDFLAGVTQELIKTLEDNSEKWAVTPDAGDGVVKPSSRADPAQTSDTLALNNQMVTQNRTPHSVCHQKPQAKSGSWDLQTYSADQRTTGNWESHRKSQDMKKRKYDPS

[5] = viability loss in HeLa cells – cytotoxicity control for MgcRacGAP inhibitor project, dose response (AID 624300); assay type: functional
[6] = biological target: T3, Trace amine-associated receptor 1 (Homo sapiens, UniProt Q96RJ0); test: Counterscreen for antagonists of the human trace amine associated receptor 1 (hTAAR1): Fluorescence-based cell-based high throughput dose response assay to identify TAAR1 Agonists.; assay type: functional
T3 sequence (Q96RJ0 whole entry): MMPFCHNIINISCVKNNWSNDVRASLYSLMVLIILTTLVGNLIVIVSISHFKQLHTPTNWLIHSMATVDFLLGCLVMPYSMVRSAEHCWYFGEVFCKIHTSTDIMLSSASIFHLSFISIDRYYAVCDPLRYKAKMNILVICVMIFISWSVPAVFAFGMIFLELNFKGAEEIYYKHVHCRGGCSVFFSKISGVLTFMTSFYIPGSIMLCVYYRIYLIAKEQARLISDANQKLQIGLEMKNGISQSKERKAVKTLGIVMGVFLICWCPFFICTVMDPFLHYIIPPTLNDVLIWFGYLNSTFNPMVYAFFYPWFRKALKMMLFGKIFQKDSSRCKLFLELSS

[7] = biological target: T3, Trace amine-associated receptor 1; test: Fluorescence-based cell-based high throughput dose response assay to identify antagonists of the human trace amine associated receptor 1 (TAAR1).; assay type: functional
[8] = Counterscreen for antagonists of the human trace amine associated receptor 1 (hTAAR1): Fluorescence-based cell-based high throughput dose response assay to identify nonselective Ga16 antagonists.; assay type: functional
[9] = Counterscreen for […] of the human trace amine associated receptor 1 (TAAR1): Fluorescence-based cell-based high throughput dose response assay to identify nonselective Ga16 agonists.; assay type: functional
Beta-galactosidase = Beta-galactosidase (Escherichia coli, UniProt Q8VNN2); test: Dose response counterscreen for EBI2 assay utilizing the enzyme, b-galactosidase.; assay type: functional
Beta-galactosidase, sequence (Q8VNN2 whole entry): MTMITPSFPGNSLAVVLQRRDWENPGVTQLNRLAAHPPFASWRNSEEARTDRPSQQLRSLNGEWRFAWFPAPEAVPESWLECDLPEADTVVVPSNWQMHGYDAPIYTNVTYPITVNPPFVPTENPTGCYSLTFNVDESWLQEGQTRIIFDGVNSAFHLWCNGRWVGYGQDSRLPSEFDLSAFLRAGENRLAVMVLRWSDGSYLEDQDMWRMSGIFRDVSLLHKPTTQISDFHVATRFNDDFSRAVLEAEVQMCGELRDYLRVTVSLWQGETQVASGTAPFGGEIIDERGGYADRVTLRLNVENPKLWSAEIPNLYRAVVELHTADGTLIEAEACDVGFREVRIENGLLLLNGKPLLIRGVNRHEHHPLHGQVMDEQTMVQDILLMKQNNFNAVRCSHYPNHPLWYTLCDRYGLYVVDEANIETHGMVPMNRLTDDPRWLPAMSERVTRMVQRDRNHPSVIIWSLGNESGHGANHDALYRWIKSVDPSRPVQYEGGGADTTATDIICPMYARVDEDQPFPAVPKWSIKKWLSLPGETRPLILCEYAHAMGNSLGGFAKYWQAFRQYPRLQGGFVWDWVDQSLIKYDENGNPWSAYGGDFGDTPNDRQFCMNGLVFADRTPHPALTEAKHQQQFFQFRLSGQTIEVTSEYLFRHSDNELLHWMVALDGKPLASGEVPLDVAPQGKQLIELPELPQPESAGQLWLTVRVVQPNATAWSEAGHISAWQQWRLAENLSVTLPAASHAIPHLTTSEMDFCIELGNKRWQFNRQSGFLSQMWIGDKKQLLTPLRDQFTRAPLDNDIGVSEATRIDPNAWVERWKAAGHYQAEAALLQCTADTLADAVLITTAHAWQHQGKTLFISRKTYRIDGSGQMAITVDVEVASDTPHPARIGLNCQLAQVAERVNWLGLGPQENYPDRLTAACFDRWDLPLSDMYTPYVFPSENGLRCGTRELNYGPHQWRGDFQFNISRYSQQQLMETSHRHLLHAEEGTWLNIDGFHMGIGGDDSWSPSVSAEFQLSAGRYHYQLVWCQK

Beta-lactamase [10] = biological target: T4, Beta-lactamase (Pseudomonas aeruginosa, UniProt Q79MP6); test: inhibition of IMP-1 beta-lactamase activity – biochemical, epi-absorbance, selectivity assay for VIM-2 inhibitor project, dose response (AID 1920)
T4 sequence (Q79MP6 whole entry): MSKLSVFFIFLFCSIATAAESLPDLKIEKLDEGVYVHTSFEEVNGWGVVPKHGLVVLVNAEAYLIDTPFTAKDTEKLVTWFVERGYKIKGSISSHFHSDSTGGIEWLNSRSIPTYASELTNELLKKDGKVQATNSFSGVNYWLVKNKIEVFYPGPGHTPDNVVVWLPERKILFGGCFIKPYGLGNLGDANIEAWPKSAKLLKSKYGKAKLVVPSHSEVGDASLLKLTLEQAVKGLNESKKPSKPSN

Beta-lactamase [11] = biological target: T4, Beta-lactamase; test: […] counterscreen for selective VIM-2 inhibitors: dose response biochemical high throughput screening assay to identify inhibitors of IMP-1 metallo-beta-lactamase.
Beta-lactamase [12] = biological target: Beta-lactamase (Salmonella choleraesuis (strain SC-B67), UniProt Q5J463); test: Epi-absorbance-based counterscreen for selective VIM-2 inhibitors: dose response biochemical high throughput screening assay to identify inhibitors of TEM-1 serine-beta-lactamase.
[13] = biological target: 72 kDa type IV collagenase (Homo sapiens, UniProt P08253); test: Dose Response validation of uHTS RPN11 inhibitor hits using a MMP-2 Fluorescence assay.; assay type: functional
72 kDa type IV collagenase, sequence (P08253 whole entry): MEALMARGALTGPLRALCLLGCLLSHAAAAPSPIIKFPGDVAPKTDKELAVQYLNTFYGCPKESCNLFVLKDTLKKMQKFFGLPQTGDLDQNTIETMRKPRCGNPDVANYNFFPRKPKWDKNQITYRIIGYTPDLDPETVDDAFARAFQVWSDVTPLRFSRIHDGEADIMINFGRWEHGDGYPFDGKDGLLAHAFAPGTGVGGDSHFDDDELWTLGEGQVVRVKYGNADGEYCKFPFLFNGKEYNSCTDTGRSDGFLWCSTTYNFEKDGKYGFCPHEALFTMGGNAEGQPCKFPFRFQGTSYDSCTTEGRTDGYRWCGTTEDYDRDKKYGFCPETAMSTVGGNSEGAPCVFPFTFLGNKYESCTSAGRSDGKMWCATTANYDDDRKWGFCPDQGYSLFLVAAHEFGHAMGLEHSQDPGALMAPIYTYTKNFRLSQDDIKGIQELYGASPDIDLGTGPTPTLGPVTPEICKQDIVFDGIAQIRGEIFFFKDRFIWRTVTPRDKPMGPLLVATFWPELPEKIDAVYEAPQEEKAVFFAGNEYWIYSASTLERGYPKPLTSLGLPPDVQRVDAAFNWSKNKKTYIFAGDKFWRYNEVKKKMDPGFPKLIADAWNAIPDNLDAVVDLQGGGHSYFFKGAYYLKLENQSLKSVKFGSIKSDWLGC

Prothrombin = Prothrombin (Bos taurus, UniProt P00735); test: thrombin protease inhibitors – biochemical, fluorescence polarization, uHTS hits, dose response (AID 602369); assay type: functional
[14] = biological target: Arf-GAP with SH3 domain, ANK repeat and PH domain-containing protein 1 (Homo sapiens, UniProt Q9ULH1); assay type: functional;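 also: biochemical fluorescence polarization dose–response screen measuring inhibition of ASAP1; ASAP1 GAP domain stimulating GTP hydrolysis by truncated human ARF1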
[15] = biological target: 26S proteasome non-ATPase regulatory subunit 14 (Homo sapiens, UniProt O00487); test: inhibition of proteasome subunit RPN11 – biochemical, fluorescence polarization, uHTS hits, confirmation (AID 602368); assay type: functional
26S proteasome non-ATPase regulatory subunit 14, sequence (O00487 whole entry): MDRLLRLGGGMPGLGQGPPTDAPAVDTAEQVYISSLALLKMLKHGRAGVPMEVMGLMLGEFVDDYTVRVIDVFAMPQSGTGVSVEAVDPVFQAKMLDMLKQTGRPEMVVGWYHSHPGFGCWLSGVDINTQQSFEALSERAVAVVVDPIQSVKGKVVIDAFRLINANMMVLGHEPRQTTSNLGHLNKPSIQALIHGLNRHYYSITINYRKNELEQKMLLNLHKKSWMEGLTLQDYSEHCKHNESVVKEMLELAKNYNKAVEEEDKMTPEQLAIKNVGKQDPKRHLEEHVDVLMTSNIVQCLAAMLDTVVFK

[16] = biological target: Histone-lysine N-methyltransferase NSD2 (Homo sapiens, UniProt O96028); assay type: biochemical
Histone-lysine N-methyltransferase NSD2, sequence (O96028 whole entry): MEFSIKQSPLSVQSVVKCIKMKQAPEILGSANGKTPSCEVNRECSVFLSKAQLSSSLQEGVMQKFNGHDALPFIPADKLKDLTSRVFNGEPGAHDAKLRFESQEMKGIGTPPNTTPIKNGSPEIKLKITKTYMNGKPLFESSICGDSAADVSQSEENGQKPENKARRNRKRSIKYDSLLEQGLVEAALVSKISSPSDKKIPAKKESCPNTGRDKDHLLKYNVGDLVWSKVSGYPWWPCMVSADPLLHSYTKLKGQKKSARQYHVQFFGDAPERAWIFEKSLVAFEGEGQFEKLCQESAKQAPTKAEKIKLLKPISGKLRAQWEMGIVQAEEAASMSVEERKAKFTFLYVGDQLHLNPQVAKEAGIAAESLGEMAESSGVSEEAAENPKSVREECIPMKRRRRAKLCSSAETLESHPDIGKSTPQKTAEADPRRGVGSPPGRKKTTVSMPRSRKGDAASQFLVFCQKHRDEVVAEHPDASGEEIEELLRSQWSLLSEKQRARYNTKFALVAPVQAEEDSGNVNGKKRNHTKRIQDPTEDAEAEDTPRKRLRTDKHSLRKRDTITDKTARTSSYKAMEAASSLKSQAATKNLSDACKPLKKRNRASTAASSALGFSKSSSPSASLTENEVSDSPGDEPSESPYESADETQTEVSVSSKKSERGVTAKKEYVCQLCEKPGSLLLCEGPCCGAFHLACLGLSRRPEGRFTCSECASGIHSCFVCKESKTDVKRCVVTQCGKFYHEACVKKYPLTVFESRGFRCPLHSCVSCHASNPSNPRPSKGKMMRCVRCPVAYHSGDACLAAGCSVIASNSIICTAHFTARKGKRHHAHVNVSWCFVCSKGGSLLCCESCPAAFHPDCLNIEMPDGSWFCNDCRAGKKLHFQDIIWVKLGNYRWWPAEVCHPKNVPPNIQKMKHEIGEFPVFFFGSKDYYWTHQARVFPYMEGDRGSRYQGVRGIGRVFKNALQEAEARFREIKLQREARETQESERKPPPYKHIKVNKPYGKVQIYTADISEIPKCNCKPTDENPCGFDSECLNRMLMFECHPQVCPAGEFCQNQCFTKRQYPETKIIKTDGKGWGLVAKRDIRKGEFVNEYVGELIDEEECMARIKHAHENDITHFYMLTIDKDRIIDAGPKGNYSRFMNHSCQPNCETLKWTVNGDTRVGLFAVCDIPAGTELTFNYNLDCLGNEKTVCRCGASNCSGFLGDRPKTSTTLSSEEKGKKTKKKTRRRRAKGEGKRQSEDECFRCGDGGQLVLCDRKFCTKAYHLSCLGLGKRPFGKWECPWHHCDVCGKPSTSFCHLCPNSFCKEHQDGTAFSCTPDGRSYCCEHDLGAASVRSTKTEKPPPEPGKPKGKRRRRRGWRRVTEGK

[17] = MITF: Counter assay: A375 proliferation Measured in Cell-Based System Using Plate Reader - 2084-03_Inhibitor_Dose_DryPowder_Activity_Set8.; assay type: functional; settings: A-375
[18] = inhibitors of TRPM1-promoter reporter in SK-MEL-5 – cell-based, luciferase, dry powder, set 8, MITF inhibitor project, dose response (AID 624430); assay type: functional
[19] = MITF Orthogonal Assay: SK-MEL-5 CTG Assay Measured in Cell-Based System Using Plate Reader - 2084-02_Inhibitor_Dose_DryPowder_Activity_Set7.; assay type: functional
[20] = CMV-driven luciferase expression suppression in HEK293 – cell-based, luminescence, dry powder, counter-screen for Pax8 inhibitor project, dose response (AID 743020); assay type: functional
[21] = OVCAR-3 cell viability loss – plate reader, dry powder samples, PAX8 inhibitor project, dose response (AID 743044); assay type: functional, cell-based
Paired box protein Pax-8 = Paired box protein Pax-8 (Homo sapiens, UniProt Q06710); test: PAX8 transcriptional activity inhibition in RMG-I – RMG-I cells, luciferase, cherry-pick, dose response (AID 687027); assay type: functional, cell-based;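 also: luciferase reporter driven by Pax8 target thyroperoxidase promoter measured by SteadyGlo luminescence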
Paired box protein Pax-8, sequence (Q06710 whole entry): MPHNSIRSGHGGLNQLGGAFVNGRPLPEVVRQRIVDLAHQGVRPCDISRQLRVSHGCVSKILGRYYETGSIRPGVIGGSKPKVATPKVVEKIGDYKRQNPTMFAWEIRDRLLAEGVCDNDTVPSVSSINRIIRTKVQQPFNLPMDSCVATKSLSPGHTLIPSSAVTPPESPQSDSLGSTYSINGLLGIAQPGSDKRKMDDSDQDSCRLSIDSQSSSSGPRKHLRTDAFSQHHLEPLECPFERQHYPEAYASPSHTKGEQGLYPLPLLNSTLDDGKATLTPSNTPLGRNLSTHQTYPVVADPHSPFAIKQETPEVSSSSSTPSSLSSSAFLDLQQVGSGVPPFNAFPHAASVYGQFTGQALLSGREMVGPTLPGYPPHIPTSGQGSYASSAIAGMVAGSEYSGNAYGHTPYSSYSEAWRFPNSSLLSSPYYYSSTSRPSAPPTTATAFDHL

[22] = OVCAR8 cell viability loss – plate reader, dry powder samples, PAX8 project, dose response (AID 743197); assay type: functional, cell-based; settings: OVCAR-8
[23] = biological target: Protein disulfide-isomerase (Homo sapiens, UniProt P07237); test: inhibition of PDI-mediated insulin reduction – biochemical, turbidity, dry powder samples, set 2, confirmation (AID 652146)
Protein disulfide-isomerase, sequence (P07237 whole entry): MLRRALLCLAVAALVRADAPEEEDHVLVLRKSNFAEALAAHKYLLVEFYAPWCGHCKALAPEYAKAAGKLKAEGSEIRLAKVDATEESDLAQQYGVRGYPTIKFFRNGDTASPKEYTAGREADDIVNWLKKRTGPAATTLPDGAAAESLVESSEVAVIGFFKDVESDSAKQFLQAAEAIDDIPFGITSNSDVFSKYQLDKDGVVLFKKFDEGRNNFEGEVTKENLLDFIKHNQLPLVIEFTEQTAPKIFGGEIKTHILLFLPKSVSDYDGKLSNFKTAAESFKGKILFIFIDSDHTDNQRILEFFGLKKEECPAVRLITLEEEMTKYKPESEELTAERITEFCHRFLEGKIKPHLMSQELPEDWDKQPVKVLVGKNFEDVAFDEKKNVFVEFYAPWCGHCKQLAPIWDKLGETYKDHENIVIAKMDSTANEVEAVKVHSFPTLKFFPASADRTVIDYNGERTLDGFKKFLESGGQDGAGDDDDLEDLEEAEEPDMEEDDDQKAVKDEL

[24] = T. cruzi growth inhibition in host cells, dose response, cell-based, plate reader, dry powder, set 2 (AID 652275); assay type: functional

Nonstructural protein 1, sequence (Q194T2 whole entry, the tested form may be a part): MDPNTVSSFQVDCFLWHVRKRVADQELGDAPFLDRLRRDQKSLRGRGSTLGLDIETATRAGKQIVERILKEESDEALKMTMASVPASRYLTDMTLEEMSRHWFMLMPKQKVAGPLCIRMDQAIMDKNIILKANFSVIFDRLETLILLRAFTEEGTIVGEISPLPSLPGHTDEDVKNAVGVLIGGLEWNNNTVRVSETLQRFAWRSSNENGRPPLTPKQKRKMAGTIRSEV

## CN(C)c1ccc(/C=C/c2cc[n+](C)c3ccccc23)cc1
Nonstructural protein 1
  IC50: 10.6 µM (active)
[1]
  IC50: 7.07 µM (active)
[2]
  IC50: 38.5 µM (active)
[3]
  IC50: 30.1 µM (inactive)
[4]
  AC50: 1.23 µM (active)
[5]
  CC50: 54.1 µM (active)

## O=C(CCSCc1cccc(F)c1)NCCc1ccccc1
[6]
  EC50: > 29.9 µM (inactive)
[7]
  IC50: 7.43 µM (active)
[8]
  IC50: > 29.9 µM (inactive)
[9]
  EC50: > 29.9 µM (inactive)

## CCOC(=O)C1CCN(C2=NC(=O)/C(=C/c3ccc(Cl)cc3)S2)CC1
Beta-galactosidase
  IC50: > 80 µM (inactive)

## Fc1ccccc1-c1nnc(S)n1Cc1ccccc1
Beta-lactamase [10]
  IC50: > 59.6 µM (inactive)
Beta-lactamase [11]
  IC50: > 59.6 µM (inactive)
Beta-lactamase [12]
  IC50: > 59.6 µM (inactive)

## N#Cc1ccc(-c2ccc(OCC(=O)NCC(=O)Nc3ccc(F)c(F)c3F)cc2)cc1
[13]
  IC50: > 100 µM (inactive)
Prothrombin
  IC50: > 100 µM (inactive)
[14]
  IC50: 26.1 µM (inactive)
[15]
  IC50: 12.7 µM (active)

## CCN=C(S)N(CCCN(CC)CC)Cc1cc2cc3c(cc2nc1O)OCO3
[16]
  AC50: 15.7 µM (active)

## Cc1cccc(NC2=CC(=O)c3ccccc3C2=O)c1
[17]
  AC50: > 70 µM (inactive)
[18]
  AC50: 18.9 µM (active)
[19]
  AC50: 0.66 µM (active)

## C[C@H]1CN([C@@H](C)CO)S(=O)(=O)c2ccc(C#CC3CCCC3)cc2O[C@@H]1CN(C)Cc1cccnc1
[20]
  AC50: 39.4 µM (active)
[21]
  AC50: 37.1 µM (active)
Paired box protein Pax-8
  AC50: 14.4 µM (active)
[22]
  AC50: > 70 µM (inactive)

## CCOC(=O)C1(CCOc2ccccc2)CCN(Cc2ccc3[nH]c(=O)oc3c2)CC1
[23]
  AC50: > 30 µM (inactive)

## C[C@@H](CO)N1CC[C@H](CNCc2ccc(Oc3ccccc3)cc2)Oc2c(NC(=O)c3ccncc3)cccc2C1=O
[24]
  AC50: 0.0179 µM (active)
